# Measurements published in patent US10206897B2 (Board of Regents of the University of Nebraska, priority 2000, dated 2019).
# Where two headings read alike, the source gives them in different places.
# Experiments:
# [1] = test system: brain microvessel endothelial cells (BMEC); test: prostaglandin E2 release from BMEC monolayers exposed to bacterial lipopolysaccharide; format: cell-based
# From the text: In an exemplary study primary cultured brain microvessel endothelial cells (BMEC) were used as an in vitro cell culture model to examine inflammation. These cells have been used previously to examine the effects of the inflammatory mediators such as tumor necrosis factor (TNF), and bacterial lipopolysaccharide (LPS). See Mark, K. S. and Miller, D. W. increased Permeability of Prim my Cultured Brain Microvessel Endothelial Cell Monolayers Following Tumor Necrosis Factor-Alpha Exposure. Life Sci. 64: 1941-1953, 1999, which is herein incorporated by reference in its entirety. See also Mark, K. S., Trickier, W. J., and Miller, D. W. Role of Cyclooxygenase-2 and Prostaglandins in the TNF-a Induced Changes in Brain Microvessel Endothelial Cell Permeability. J. Pharmacol. Exp. Ther. 297: I 051-1058, 200 I, which is herein incorporated by reference in its entirety. See also McGuire, T. R., Hoie, E., Trickier, […]., and Miller, D. W. Release of Prostaglandin E-2 in Bovine Brain Endothelial Cells After Exposure to Three Unique Forms of the Antifuingal Drug Amphotericin: Role of COX-2 in Amphotericin-Induced Fever. Life Sci. (accepted for publication), which is herein incorporated by reference in its entirety. These studies indicate that following exposure to either tumor necrosis factor (TNF) or bacterial lipopolysaccharide (LPS), there is an increased expression of cyclooxygenase 2 (COX 2). […] Treatment with bacterial lipopolysaccharide (LPS) alone caused significant increases in prostaglandin E2 (PGE2) release from the cells over the 12 hour exposure period (approximately 1a-fold increase over control).
# [2] = test system: C2Cl2 Muscle Cells; test: accumulation (loading) of creatine in C2Cl2 muscle cells; format: cell-based, mouse; conditions: 3.2 mg/ml, up to 1 hour at 37 C
# From the text: (§1) Over this time period it was observed that here is a significant, approximately two-fold, increase in the “loading” of CEE in the muscle cells versus CM loading. FIGS. 13 through 15 exemplify the effects of this increased loading of CEE in the C2Cl2 cells under normal and hypoxic conditions. FIGS. 13 through 15 illustrate the results of studies of lactic acid levels in and lactic acid release from C2Cl2 muscle cells. […] The results were gathered over a six hour period of time.
# [3] = test system: C2Cl2 Muscle Cells; test: lactic acid levels in and release from C2Cl2 muscle cells under normal and hypoxic conditions; format: cell-based, mouse; conditions: 100 uM, six hour period
# From the text: as §1
# [4] = test system: MDCK monolayers; conditions: dog, 1 h
# [5] = biological target: cyclooxygenase 1 (Homo sapiens, UniProt P23219); test: direct inhibition of cyclooxygenase 1; conditions: at concentrations used in the current study
# Chain of cyclooxygenase 1 (P23219 24-599, species assumed): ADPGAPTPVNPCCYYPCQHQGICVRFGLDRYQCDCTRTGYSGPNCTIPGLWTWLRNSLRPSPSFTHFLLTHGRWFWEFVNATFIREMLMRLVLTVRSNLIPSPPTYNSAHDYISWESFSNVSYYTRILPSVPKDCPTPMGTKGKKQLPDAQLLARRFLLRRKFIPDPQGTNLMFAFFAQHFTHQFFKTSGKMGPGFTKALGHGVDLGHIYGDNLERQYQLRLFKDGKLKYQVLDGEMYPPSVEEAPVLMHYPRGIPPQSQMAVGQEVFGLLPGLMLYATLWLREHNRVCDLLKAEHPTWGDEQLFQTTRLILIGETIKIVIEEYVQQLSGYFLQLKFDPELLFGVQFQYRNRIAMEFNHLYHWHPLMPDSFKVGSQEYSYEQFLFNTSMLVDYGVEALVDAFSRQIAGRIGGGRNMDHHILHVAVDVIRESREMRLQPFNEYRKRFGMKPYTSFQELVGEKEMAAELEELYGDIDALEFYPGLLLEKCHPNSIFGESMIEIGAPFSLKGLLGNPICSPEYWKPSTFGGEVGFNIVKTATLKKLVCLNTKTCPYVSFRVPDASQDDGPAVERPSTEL
# [6] = biological target: T1, cyclooxygenase 2 (Homo sapiens, UniProt P35354); test: direct inhibition of cyclooxygenase 2; conditions: at concentrations used in the current study
# T1 sequence (P35354 18-604): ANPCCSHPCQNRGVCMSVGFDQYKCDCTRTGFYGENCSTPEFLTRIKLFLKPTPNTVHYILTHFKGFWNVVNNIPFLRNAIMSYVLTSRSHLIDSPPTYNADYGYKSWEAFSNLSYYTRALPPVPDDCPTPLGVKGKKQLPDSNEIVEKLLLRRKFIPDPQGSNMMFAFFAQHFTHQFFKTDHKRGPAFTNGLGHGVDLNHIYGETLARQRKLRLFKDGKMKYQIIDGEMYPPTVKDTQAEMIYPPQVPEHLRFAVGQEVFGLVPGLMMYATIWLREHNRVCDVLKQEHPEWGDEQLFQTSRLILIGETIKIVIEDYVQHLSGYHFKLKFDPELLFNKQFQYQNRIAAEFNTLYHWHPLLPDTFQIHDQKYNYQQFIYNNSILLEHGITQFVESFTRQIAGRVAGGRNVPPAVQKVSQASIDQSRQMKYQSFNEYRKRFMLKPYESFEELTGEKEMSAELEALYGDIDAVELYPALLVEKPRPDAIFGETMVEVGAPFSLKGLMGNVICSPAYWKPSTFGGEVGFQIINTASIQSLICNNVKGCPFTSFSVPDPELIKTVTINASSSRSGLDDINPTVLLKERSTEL
# [7] = test system: MDCK monolayers; test: permeability (flux) across MDCK monolayers; conditions: over one hour
# [8] = of the administered dose; cited from earlier work
# [9] = gastric pH range of 1-2; cited from earlier work
# [10] = test system: inflammatory responses produced by carrageenan, 5-hydroxytryptamine, nystatin and formaldehyde; conditions: oral; cited from earlier work
# [11] = partition coefficient
compound,measurement,setting,value
"CCOC(=O)CN(C)C(=N)N.Cl [creatine ethyl ester hydrochloride, Creatine Ethyl Ester Hydrochloride]",concentration giving maximal reduction in PGE2 release,"[1]; LPS 20 ng/ml, 12 hour exposure",100 µM
same,lowest concentration with reduction in PGE2 release,"[1]; LPS 20 ng/ml, 12 hour exposure",10 µM
same,effect on prostaglandin E2 (PGE2) release following LPS exposure,"[1]; LPS 20 ng/ml, 12 hour exposure, co-administration",significantly reduced
CCOC(=O)CN(C)C(=N)N [creatine ethyl ester],magnitude of PGE2 response compared with indomethacin (10 μM),[1]; 100 μM,similar
same,increase in loading in muscle cells versus CM loading,[2],approximately two-fold
same,cellular lactic acid levels,[3],marked reduction
same,lactic acid release,[3],marked reduction
same,flux across MDCK monolayer,[4],approximately 20%
same,direct inhibition of cyclooxygenase 1,[5],have not presently revealed an inhibition
same,direct inhibition of cyclooxygenase 2,[6],have not presently revealed an inhibition
CN(CC(=O)O)C(=N)N [creatine monohydrate],magnitude of PGE2 response compared with indomethacin (10 μM),[1]; 1000 μM,similar
same,concentration giving maximal reduction in PGE2 release,"[1]; LPS 20 ng/ml, 12 hour exposure",at least 1000 μM
same,lowest concentration with reduction in PGE2 release,"[1]; LPS 20 ng/ml, 12 hour exposure",100 µM
same,direct inhibition of cyclooxygenase 1,[5]; monohydrate,have not presently revealed an inhibition
same,direct inhibition of cyclooxygenase 2,[6]; monohydrate,have not presently revealed an inhibition
same,flux across MDCK monolayer,[7],approximately 10%
CN(CC(=O)O)C(=N)N [creatine],total estimated oral absorption,[8],≤ 14%
same,creatinine/creatine ratio,[9],greater than or equal to 30
same,suppression of experimentally induced inflammatory responses,[10],orally effective
same,Partition,[11],0.015 +/− 0.007
same,direct inhibition of cyclooxygenase 1,[5],does not inhibit
same,direct inhibition of cyclooxygenase 2,[6],does not inhibit
